The assay addresses Prostate-specific membrane antigen (PSMA), canine (Canis lupus, UniProt I4IY07). Nature of the assay: HPLC-based enzyme inhibition assay. The assay is classed as biochemical.

Prostate-specific membrane antigen (PSMA), canine, sequence (I4IY07 29-779): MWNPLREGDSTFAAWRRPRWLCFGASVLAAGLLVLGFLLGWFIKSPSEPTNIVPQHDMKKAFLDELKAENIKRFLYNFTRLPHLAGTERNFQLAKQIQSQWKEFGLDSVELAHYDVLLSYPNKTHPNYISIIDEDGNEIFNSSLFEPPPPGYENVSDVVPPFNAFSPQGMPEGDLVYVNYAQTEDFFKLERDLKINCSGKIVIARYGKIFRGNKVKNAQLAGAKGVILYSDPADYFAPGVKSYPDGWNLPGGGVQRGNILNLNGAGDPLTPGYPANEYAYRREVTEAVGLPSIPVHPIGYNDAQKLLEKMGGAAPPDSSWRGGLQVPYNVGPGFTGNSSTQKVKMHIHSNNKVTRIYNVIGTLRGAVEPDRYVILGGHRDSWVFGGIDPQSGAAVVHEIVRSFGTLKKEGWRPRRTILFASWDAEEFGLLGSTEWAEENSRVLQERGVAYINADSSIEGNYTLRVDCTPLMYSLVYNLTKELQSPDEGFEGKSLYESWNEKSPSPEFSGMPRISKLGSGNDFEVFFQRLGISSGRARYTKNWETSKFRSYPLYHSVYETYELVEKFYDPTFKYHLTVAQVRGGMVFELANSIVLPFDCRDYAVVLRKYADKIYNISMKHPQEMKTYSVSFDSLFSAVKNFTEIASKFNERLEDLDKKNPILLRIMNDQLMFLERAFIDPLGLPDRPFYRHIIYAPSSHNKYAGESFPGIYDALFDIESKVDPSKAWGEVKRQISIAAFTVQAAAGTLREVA

Substance FAMX-CTT-54 [compound 2] showed an IC50 of 1.6 nM.

The record behind these values is publication PMC4237199 (The Prostate, 2014).
